{"source": "patent US20240238263A1", "about": "“USE OF PYRIDONE DERIVATIVE CONTAINING HETEROATOM CYCLOBUTANE SUBSTITUENT” (GUANGZHOU JOYO PHARMATECH CO., LTD, priority 2021, published 2024)", "tested_on": "dorsal skin full-thickness excisional wound in STZ-induced diabetic rats", "assay": "Dorsal skin full-thickness excisional wound model in STZ-induced diabetic rats, wound closure", "type": "in vivo, Wistar rats", "method": "In this study, 50 STZ-diabetic rats were used to simulate Type 1 diabetes, with an additional 8 normal rats serving as the control group (normal blank gel control group (without STZ)). The method for modeling the STZ-diabetic rat is as follows: Male Wistar rats were weighed and then intraperitoneally injected with Streptozotocin (STZ, freshly prepared, dissolved in 0.1 M citrate buffer (pH 4.5)) at a dosage of 80 mg/kg. STZ was intraperitoneally injected twice in total, with a 5-day interval between injections. Three days after the second STZ injection, rats with fasting blood glucose levels greater than 250 mg/dl were defined as diabetic model rats. Studies on skin wound healing could be conducted from 1 to 8 weeks after the successful establishment of the diabetic rat model. • 2.\nIn diabetic model rats, the dorsal skin was marked with a stamp, and full-thickness excision was performed to create a standardized wound area. The day of the full-thickness skin excision surgery was designated as Day 1 of the experiment. The specified surgical procedure was as follows: • 1) Prior to surgery, animals were anesthetized with 2-5% isoflurane. The back was shaved and prepared, and the surgical area was disinfected with iodophor, followed by de-iodination with 75% alcohol. • 2) All animals were marked on the skin of their backs using a stamp with a circular pattern. A circular full-thickness skin excision was performed along the midline of the rat's back, extending down to the fascial layer. […] The surgical site was essentially consistent for each animal; • 3) Post-surgery, every 8-12 hours, 8 mg/kg of bupivacaine (diluted to 0.25% with physiological saline) was injected subcutaneously at the wound site. All animals were closely monitored until they regained consciousness. Animals were monitored daily, and if symptoms of pain persisted, they would continue to receive pain medication. • 4. Drug administration:\nAll experimental groups were topically administered. Before administering the medication, wounds were rinsed with physiological saline and any residual moisture was absorbed with a sterile cotton swab. Then, the medication was applied. For the GeneTime group, the solution was evenly applied to the wound and surrounding skin, with the dressing changed twice a day. For the other groups, the gel samples were applied from the periphery toward the center, focusing first on the edges of the lesion before covering inward, with the dressing changed twice a day. Medication was applied immediately after the wound model was created, and each group was continuously administered for 18 days. For specific administration information, see Table 2. • 5. Efficacy assessment • 1) Blood glucose monitoring: Blood samples were obtained from all animals via tail vein sampling, and fasting blood glucose levels were measured on days 0/9/18 using a glucometer. • 2) Evaluation of wound closure:\nAfter anesthetizing the rats with isoflurane, a ruler was placed near the wound as a reference scale. Using a digital camera, photos of the wound on the rat's back were taken on days 1, 4, 8, 11, 14, and 18, maintaining a constant focus and pixel condition. The obtained images were processed by software to measure the wound area. • 6. Statistical analysis\nExperimental data were expressed as the mean±standard error of the mean (mean±S.E.M.). Statistical analyses were conducted using appropriate methods in software such as Graphpad Prism or SPSS. A p-value of less than 0.05 is considered to indicate a significant difference. • 7. Results • 1) Fasting blood glucose\nRemaining Open Wound Area %=Open Wound Area (O)/Initial Wound Area (I)*100%", "data": [{"smiles": "CC1(c2ccc(=O)n(-c3ccsc3)c2)COC1", "note": "[compound I]", "values": [{"measurement": "Remaining open wound area", "setting": "0.3% compound I gel, 50 mg topical twice daily, Day 1 (day of surgery)", "result": "100% ±"}, {"measurement": "Remaining open wound area", "setting": "0.3% compound I gel, 50 mg topical twice daily, Day 4", "result": "94.82% ±"}, {"measurement": "Remaining open wound area", "setting": "0.3% compound I gel, 50 mg topical twice daily, Day 8", "result": "54% ±"}, {"measurement": "Remaining open wound area", "setting": "0.3% compound I gel, 50 mg topical twice daily, Day 11", "result": "24.5% ±"}, {"measurement": "Remaining open wound area", "setting": "0.3% compound I gel, 50 mg topical twice daily, Day 14", "result": "7.75% ±"}, {"measurement": "Remaining open wound area", "setting": "0.3% compound I gel, 50 mg topical twice daily, Day 18", "result": "1.22% ±"}, {"measurement": "Remaining open wound area", "setting": "1% compound I gel, topical twice daily, Day 1 (day of surgery)", "result": "100% ±"}, {"measurement": "Remaining open wound area", "setting": "1% compound I gel, topical twice daily, Day 4", "result": "94.25% ±"}, {"measurement": "Remaining open wound area", "setting": "1% compound I gel, topical twice daily, Day 8", "result": "55.4% ±"}, {"measurement": "Remaining open wound area", "setting": "1% compound I gel, topical twice daily, Day 14", "result": "5.47% ±"}, {"measurement": "Remaining open wound area", "setting": "1% compound I gel, topical twice daily, Day 18", "result": "0.78% ±"}, {"measurement": "Change of remaining open wound area % vs model blank gel control group", "setting": "1% compound I gel, after 14 days of topical administration, no statistical difference", "result": "tended to decrease"}, {"measurement": "Change of remaining open wound area % vs model blank gel control group", "setting": "1% compound I gel, day 11 after administration, P<0.01", "result": "significantly reduced"}, {"measurement": "Remaining open wound area", "setting": "3% compound I gel, topical twice daily, Day 1 (day of surgery)", "result": "100% ±"}, {"measurement": "Remaining open wound area", "setting": "3% compound I gel, topical twice daily, Day 4", "result": "93.96% ±"}, {"measurement": "Remaining open wound area", "setting": "3% compound I gel, topical twice daily, Day 8", "result": "56.92% ±"}, {"measurement": "Remaining open wound area", "setting": "3% compound I gel, topical twice daily, Day 14", "result": "6% ±"}, {"measurement": "Remaining open wound area", "setting": "3% compound I gel, topical twice daily, Day 18", "result": "2.01% ±"}, {"measurement": "Change of remaining open wound area % vs model blank gel control group", "setting": "3% compound I gel, after 14 days of topical administration, no statistical difference", "result": "tended to decrease"}, {"measurement": "Change of remaining open wound area % vs model blank gel control group", "setting": "3% compound I gel, day 11 after administration, P<0.05", "result": "significantly reduced"}]}]}
